Test results from paper PMC8776063, “Aurora Kinase A Is Involved in Controlling the Localization of Aquaporin-2 in Renal Principal Cells” (International Journal of Molecular Sciences, 2022).
Read-outs that look alike come from different tables or passages of the source. Values belong to the molecule of their own block, whether it stands above or below them.

Legend:
[1] = tested on: CFL1 phosphorylation in MCD4 cells; assay: CFL1 phosphorylation, Western blotting; assay type: cell-based, mouse; conditions: compound 30 µM, 1 h
MCD4 cells [2] = assay: AQP2 redistribution, immunofluorescence microscopy; conditions: compound 30 µM, 1 h (Aurora-A inhibitor I 1-30 µM), forskolin 30 µM, 30 min
MCD4 cells [3] = assay: F-actin stress fiber staining (phalloidin); assay type: cell-based, mouse; conditions: compound 30 µM, 1 h
primary IMCD cells [4] = assay: AQP2 redistribution, immunofluorescence microscopy; conditions: compound 20 µM, 1 h (Aurora-A inhibitor I 1-30 µM), AVP 100 nM, 30 min
primary IMCD cells [5] = assay: F-actin stress fiber staining (phalloidin); assay type: cell-based, rat; conditions: compound 20 µM, 1 h
[6] = tested on: complex of AURKA and TPX2; parameters: method as in PMID 26732741; conditions: cited from earlier work
M12 cells = tested on: M12 cells; parameters: method as in PMID 25090971; conditions: cited from earlier work
AURKB = AURKB (Homo sapiens, UniProt Q96GD4); assay: NanoBRET assay in HEK293T cells; assay type: cell-based; parameters: full-length wild-type AURKA, AURKB, and AURKC were obtained as plasmids cloned in frame with a C-terminal NanoLuc-fusion; host or cells: HEK293T; conditions: NanoBRET
AURKC = target: T1, AURKC (Homo sapiens, UniProt Q9UQB9); assay: NanoBRET assay in HEK293T cells; assay type: cell-based; conditions: NanoBRET, Figure 6B, read-out: affinity to intracellular AURKC
T1 construct: full-length wild-type AURKA, AURKB, and AURKC were obtained as plasmids cloned in frame with a C-terminal NanoLuc-fusion; host or cells: HEK293T
T1 sequence (Q9UQB9 1-309): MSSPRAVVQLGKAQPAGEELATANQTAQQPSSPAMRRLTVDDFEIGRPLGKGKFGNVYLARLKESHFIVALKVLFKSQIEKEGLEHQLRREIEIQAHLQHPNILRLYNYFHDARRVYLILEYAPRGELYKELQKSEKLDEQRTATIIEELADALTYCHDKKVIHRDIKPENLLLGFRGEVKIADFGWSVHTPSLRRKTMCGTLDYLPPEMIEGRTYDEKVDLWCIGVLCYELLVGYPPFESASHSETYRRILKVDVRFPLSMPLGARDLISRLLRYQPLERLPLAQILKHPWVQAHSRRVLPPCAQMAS

AURKA = target: T2, AURKA (Homo sapiens, UniProt O14965); assay: NanoBRET assay in HEK293T cells; assay type: cell-based; conditions: NanoBRET
T2 construct: full-length wild-type AURKA, AURKB, and AURKC were obtained as plasmids cloned in frame with a C-terminal NanoLuc-fusion; host or cells: HEK293T
T2 sequence (O14965 1-403): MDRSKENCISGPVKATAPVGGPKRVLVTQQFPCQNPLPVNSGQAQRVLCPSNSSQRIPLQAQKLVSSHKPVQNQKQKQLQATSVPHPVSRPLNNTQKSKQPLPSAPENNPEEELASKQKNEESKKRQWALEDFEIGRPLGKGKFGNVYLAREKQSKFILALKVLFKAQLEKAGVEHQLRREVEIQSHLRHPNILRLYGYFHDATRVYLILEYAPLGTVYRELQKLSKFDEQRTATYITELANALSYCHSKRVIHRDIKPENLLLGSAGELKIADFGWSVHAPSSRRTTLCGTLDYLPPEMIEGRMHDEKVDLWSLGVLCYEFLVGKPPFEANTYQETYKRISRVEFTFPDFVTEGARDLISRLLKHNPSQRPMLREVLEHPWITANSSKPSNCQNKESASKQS

MCD4 cells [7] = assay: MTS assay (cell viability); assay type: cell-based, mouse; conditions: 30 µM, 10 µM or 1 µM, 1 h; compared to untreated cells
STK17A = target: T3, STK17A (Homo sapiens, UniProt Q9UEE5); assay: Thermal shift assay; assay type: binding; conditions: read-out: ΔTm STK17A
T3 construct: purchased in-house thermal shift (DSF) kinase panel (SGC Frankfurt); Promega NanoBRET for AURKA/B/C
T3 sequence (Q9UEE5 61-321): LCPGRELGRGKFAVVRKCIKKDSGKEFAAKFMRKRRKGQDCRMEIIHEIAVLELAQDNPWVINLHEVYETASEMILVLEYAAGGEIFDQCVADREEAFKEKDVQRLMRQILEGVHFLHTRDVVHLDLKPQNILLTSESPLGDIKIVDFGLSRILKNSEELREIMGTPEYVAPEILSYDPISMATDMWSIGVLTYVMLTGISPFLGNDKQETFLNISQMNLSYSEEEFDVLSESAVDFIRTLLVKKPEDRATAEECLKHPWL

CAMKK2 = target: T4, CAMKK2 (Homo sapiens, UniProt Q96RR4); assay: Thermal shift assay; assay type: binding; conditions: read-out: ΔTm CAMKK2
T4 construct: purchased in-house thermal shift (DSF) kinase panel (SGC Frankfurt); Promega NanoBRET for AURKA/B/C

STK39 = target: T5, STK39 (Homo sapiens, UniProt Q9UEW8); assay: Thermal shift assay; assay type: binding; conditions: read-out: ΔTm STK39
T5 construct: purchased in-house thermal shift (DSF) kinase panel (SGC Frankfurt); Promega NanoBRET for AURKA/B/C

STK3 = target: T6, STK3 (Homo sapiens, UniProt Q13188); assay: Thermal shift assay; assay type: binding; conditions: read-out: ΔTm STK3
T6 construct: purchased in-house thermal shift (DSF) kinase panel (SGC Frankfurt); Promega NanoBRET for AURKA/B/C
T6 sequence (Q13188 16-313): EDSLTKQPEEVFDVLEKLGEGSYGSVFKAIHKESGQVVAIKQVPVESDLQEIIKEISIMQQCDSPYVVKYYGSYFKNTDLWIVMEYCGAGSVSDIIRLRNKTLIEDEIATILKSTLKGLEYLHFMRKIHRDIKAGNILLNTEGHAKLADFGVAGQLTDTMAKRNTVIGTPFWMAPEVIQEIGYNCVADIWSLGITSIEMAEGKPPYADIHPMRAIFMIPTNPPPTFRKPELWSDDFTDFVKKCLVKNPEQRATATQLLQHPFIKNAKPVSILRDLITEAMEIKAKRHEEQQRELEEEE

[8] = HEK293T cells overexpressing the kinase, Table 2, read-out: AURKB IC50
[9] = n = 2, mean, Figure 6B, read-out: affinity to intracellular AURKA
[10] = HEK293T cells overexpressing the kinase, Table 2, read-out: AURKA IC50

AURKB, sequence (Q96GD4 whole entry, the tested form may be a part): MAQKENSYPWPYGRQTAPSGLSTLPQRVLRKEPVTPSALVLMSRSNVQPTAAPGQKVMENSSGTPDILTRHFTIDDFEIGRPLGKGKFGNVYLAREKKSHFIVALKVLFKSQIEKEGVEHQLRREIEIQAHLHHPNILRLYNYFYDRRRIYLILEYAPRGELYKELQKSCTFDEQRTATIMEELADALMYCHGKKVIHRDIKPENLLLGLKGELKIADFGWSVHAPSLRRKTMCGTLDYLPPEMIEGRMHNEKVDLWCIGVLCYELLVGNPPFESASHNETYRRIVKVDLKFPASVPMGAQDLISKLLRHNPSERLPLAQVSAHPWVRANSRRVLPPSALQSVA
T4 sequence (Q96RR4 161-449): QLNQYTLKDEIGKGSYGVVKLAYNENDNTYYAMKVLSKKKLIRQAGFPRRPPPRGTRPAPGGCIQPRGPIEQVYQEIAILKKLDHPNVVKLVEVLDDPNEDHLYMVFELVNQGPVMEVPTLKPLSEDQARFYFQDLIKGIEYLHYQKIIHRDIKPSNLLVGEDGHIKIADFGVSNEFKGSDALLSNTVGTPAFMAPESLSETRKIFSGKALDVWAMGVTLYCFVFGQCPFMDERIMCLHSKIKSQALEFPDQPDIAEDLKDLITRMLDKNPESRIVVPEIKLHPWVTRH

SMILES: COc1cc(Nc2ncc3c(n2)-c2ccc(Cl)cc2C(c2c(F)cccc2OC)=NC3)ccc1C(=O)O [Alisertib, reference compound]
CFL1 phosphorylation in resting cells ([1]; no forskolin): not reduced
inhibition of the forskolin-induced redistribution of AQP2 to the plasma membrane (MCD4 cells [2]): significantly inhibited
effect on actin stress fibers (MCD4 cells [3]): promoted or maintained the formation of actin stress fibers
inhibition of the AVP-induced redistribution of AQP2 to the plasma membrane (primary IMCD cells [4]): significantly inhibited
effect on actin stress fibers (primary IMCD cells [5]): promoted or maintained the formation of actin stress fibers
decrease of affinity for AURKA in the presence of TPX2 [6]: 5.8 fold
phosphorylation of CFL1 (M12 cells): increased

SMILES: CCN(CCO)CCCOc1ccc2c(Nc3cc(CC(=O)Nc4cccc(F)c4)n[nH]3)ncnc2c1 [Barasertib-HQPA, reference compound]
CFL1 phosphorylation ([1]; absence and presence of forskolin): no effect
inhibition of the forskolin-induced redistribution of AQP2 to the plasma membrane (MCD4 cells [2]): did not
effect on actin stress fibers (MCD4 cells [3]): resembled those of the control cells
inhibition of the AVP-induced redistribution of AQP2 to the plasma membrane (primary IMCD cells [4]): No inhibitory effect
effect on actin stress fibers (primary IMCD cells [5]): resembled those of the control cells

IC50 (AURKB; [8]): > 50 µM
IC50 (AURKC; n = 2, bounds): > 50 µM
IC50 (AURKA; [9]): 1.33 µM
SMILES: O=C(O)Cc1ccc(Nc2ncc(F)c(Nc3ccc(C(=O)Nc4ccccc4Cl)cc3)n2)cc1 [ERJ2-02]

IC50 (AURKB; [8]): > 50 µM
IC50 (AURKC; n = 2, bounds): > 50 µM
IC50 (AURKA; [10]): 1.08 µM
SMILES: O=C(Nc1ccccc1Cl)c1ccc(Nc2nc(Nc3ccc(CC(=O)N4CCOCC4)cc3)ncc2F)cc1 [ERJ2-03]
inhibition of the forskolin-induced redistribution of AQP2 to the plasma membrane (MCD4 cells [2]): not being an inhibitor
viability of MCD4 cells (MCD4 cells [7]): reduced by 10 or 30 µM

IC50 (AURKB; n = 2, mean, Figure 6B, read-out: affinity to intracellular AURKB): 16.8 µM
IC50 (AURKC; n = 2, mean): 12.9 µM
IC50 (AURKA; [9]): 0.24 µM
SMILES: COCCNC(=O)Cc1ccc(Nc2ncc(F)c(Nc3ccc(C(=O)Nc4ccccc4Cl)cc3)n2)cc1 [ERJ2-05]
viability of MCD4 cells (MCD4 cells [7]): partly increased

IC50 (AURKB; [8]): 16.1 µM
IC50 (AURKC; n = 2, mean): 17 µM
IC50 (AURKA; [10]): 0.237 µM
SMILES: O=C(Cc1ccc(Nc2ncc(F)c(Nc3ccc(C(=O)Nc4ccccc4Cl)cc3)n2)cc1)NCCO [ERJ2-08]
viability of MCD4 cells (MCD4 cells [7]): partly increased

IC50 (AURKB; [8]): > 50 µM
SMILES: O=C(O)c1ccc(Nc2ncc(F)c(Nc3ccc(C(=O)O)cc3)n2)cc1 [ERJ2-09]

IC50 (AURKB; [8]): > 50 µM
IC50 (AURKC; n = 2, bounds): > 50 µM
IC50 (AURKA; [10]): 22.8 µM
SMILES: O=C(O)Cc1ccc(Nc2ncc(F)c(Nc3ccc(C(=O)Nc4ccccc4)cc3)n2)cc1 [ERJ2-10]

IC50 (AURKB; [8]): > 50 µM
IC50 (AURKC; n = 2, bounds): > 50 µM
IC50 (AURKA; [10]): 37.3 µM
SMILES: CCN1CCN(C(=O)Cc2ccc(Nc3ncc(F)c(Nc4ccc(C(=O)N5CCN(CC)CC5)cc4)n3)cc2)CC1 [ERJ2-13]

IC50 (AURKB; [8]): > 50 µM
IC50 (AURKC; n = 2, bounds): > 50 µM
IC50 (AURKA; [10]): > 50 µM
SMILES: CCN1CCN(C(=O)Cc2ccc(Nc3ncc(F)c(Nc4ccc(C(=O)NCCN5CCCC5)cc4)n3)cc2)CC1 [ERJ2-16]

SMILES: CN[C@@H]1C[C@H]2O[C@@](C)([C@@H]1OC)n1c3ccccc3c3c4c(c5c6ccccc6n2c5c31)C(=O)NC4 [Staurosporine, reference compound]
ΔTm at 10 µM (STK17A): 12.9 °C
ΔTm at 10 µM (CAMKK2): 24.2 °C
ΔTm at 10 µM (STK39): 9.9 °C
ΔTm at 10 µM (STK3): 13.7 °C
